The text below walks through data of US20150133512A1, “N-ARYLTRIAZOLE COMPOUNDS AS LPAR ANTAGONISTS” (Hoffmann-La Roche Inc,, priority 2012, published 2015).

pIC50: −log10 of the molar value.

For assay [1], the target named is human recombinant LPA1 Lysophospholipid receptor (Homo sapiens, UniProt Q92633). Put plainly: Calcium flux assay using FLIPR, LPA1 antagonist activity. It counts as cell-based. The note with it: ChemiScreen Calcium-optimized stable cell line; antagonist mode, inhibition of agonist-induced calcium flux. How it is done: (§1) Calcium Flux Assay Using Fluorometric Imaging Plate Reader (FLIPR)
Cell Culture Conditions: The ChemiScreen Calcium-optimized stable cell line containing the human recombinant LPA1 Lysophospholipid receptor was purchased from Chemicon International, Inc./Millipore. The cells were cultured in DMEM-high glucose supplemented with 10% fetal bovine serum, 2 mM glutamine, 100 U/mL penicillin/100 μg/mL streptomycin, 1× non-essential amino acids, 10 mM HEPES and 0.25 mg/mL Geneticin. Cells were harvested with trypsin-EDTA and counted using ViaCount reagent. The cell suspension volume was adjusted to 2.0×10^5 cells/mL with complete growth media. Aliquots of 50 μL were dispensed into 384 well black/clear tissue culture treated plates (BD) and the microplates were placed in a 37° C. incubator overnight. The following day plates were used in the assay.
(§2) Dye Loading and Assay: Loading Buffer (FLIPR Calcium-4, Molecular Devices) was prepared by dissolving the contents of one bottle into 100 mL Hank's Balanced Salt Solution containing 20 mM HEPES and 2.5 mM probenecid. Plates were loaded onto Biotek plate washer and growth media was removed and replaced with 20 μL of Hank's Balanced Salt Solution containing 20 mM HEPES and 2.5 mM probenecid, followed by 25 μL of Loading Buffer. The plates were then incubated for 30 minutes at 37° C.
During the incubation, test compounds were prepared by adding 90 μL of HBSS/20 mM HEPES/0.1% BSA buffer to 2 μL of serially diluted compounds. To prepare serial dilutions, 10 mM stocks of compounds were prepared in 100% DMSO.
After incubation, both the cell and “assay” plates were brought to the FLIPR and 20 μL of the diluted compounds were transferred to the cell plates by the FLIPR. Compound addition was monitored by FLIPR to detect any agonist activity of the compounds. Plates were then incubated for 30 minutes at room temperature protected from light. […] During the assay, fluorescence readings were taken simultaneously from all 384 wells of the cell plate every 1.5 seconds. Five readings were taken to establish a stable baseline, then 20 μL of sample was rapidly (30 μL/sec) and simultaneously added to each well of the cell plate. The fluorescence was continuously monitored before, during and after sample addition for a total elapsed time of 100 seconds. Responses (increase in peak fluorescence) in each well following agonist addition was determined. The initial fluorescence reading from each well, prior to ligand stimulation, was used as zero baseline value for the data from that well. The responses were expressed as % inhibition of the buffer control.
(Calcium assays in cells follow changes in intracellular calcium, usually with a dye or a luminescent sensor.)

Another assay addresses T1, LPA3 (Homo sapiens, UniProt Q9UBY5).
T1 sequence (Q9UBY5 1-353): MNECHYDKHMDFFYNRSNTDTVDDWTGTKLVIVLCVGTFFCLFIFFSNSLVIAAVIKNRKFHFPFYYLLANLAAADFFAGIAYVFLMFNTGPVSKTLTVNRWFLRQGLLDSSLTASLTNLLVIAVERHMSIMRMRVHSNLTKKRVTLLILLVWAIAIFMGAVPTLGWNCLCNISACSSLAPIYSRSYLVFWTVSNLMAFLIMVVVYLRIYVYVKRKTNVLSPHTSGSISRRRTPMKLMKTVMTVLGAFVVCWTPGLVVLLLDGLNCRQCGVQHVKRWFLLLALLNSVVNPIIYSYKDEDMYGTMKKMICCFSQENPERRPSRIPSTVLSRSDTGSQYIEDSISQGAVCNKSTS
Put plainly: Calcium flux assay using FLIPR, LPA3 antagonist activity. It counts as cell-based. The note with it: for pIC50: antagonist activity. How it is done:
as §1, §2
During the incubation, test compounds were prepared by adding 90 μL of HBSS/20 mM HEPES/0.1% BSA buffer to 2 μL of serially diluted compounds. To prepare serial dilutions, 10 mM stocks of compounds were prepared in 100% DMSO. The compound dilution plate was set up as follows: well #1 received 29 μL of stock compound and 31 μL DMSO; wells 2-10 received 40 μL of DMSO; mixed and transferred 20 μL of solution from well #1 into well #2; continued with 1:3 serial dilutions out 10 steps; transferred 2 μL of diluted compound into duplicate wells of 384 well “assay plate” and then added the 90 μL of buffer.
After incubation, both the cell and “assay” plates were brought to the FLIPR and 20 μL of the diluted compounds were transferred to the cell plates by the FLIPR. Compound addition was monitored by FLIPR to detect any agonist activity of the compounds. Plates were then incubated for 30 minutes at room temperature protected from light. After the incubation, plates were returned to the FLIPR and 20 μL of 4.5× concentrated agonist was added to the cell plates. During the assay, fluorescence readings were taken simultaneously from all 384 wells of the cell plate every 1.5 seconds. Five readings were taken to establish a stable baseline, then 20 μL of sample was rapidly (30 μL/sec) and simultaneously added to each well of the cell plate. The fluorescence was continuously monitored before, during and after sample addition for a total elapsed time of 100 seconds. Responses (increase in peak fluorescence) in each well following agonist addition was determined. The initial fluorescence reading from each well, prior to ligand stimulation, was used as zero baseline value for the data from that well. The responses were expressed as % inhibition of the buffer control.

For orientation: pIC50 means the negative decadic logarithm of the IC50, by convention in mol/L. As usually defined, the inhibition is the percentage by which the read-out fell short of the control.

human recombinant LPA1 Lysophospholipid receptor, sequence (Q92633 whole entry): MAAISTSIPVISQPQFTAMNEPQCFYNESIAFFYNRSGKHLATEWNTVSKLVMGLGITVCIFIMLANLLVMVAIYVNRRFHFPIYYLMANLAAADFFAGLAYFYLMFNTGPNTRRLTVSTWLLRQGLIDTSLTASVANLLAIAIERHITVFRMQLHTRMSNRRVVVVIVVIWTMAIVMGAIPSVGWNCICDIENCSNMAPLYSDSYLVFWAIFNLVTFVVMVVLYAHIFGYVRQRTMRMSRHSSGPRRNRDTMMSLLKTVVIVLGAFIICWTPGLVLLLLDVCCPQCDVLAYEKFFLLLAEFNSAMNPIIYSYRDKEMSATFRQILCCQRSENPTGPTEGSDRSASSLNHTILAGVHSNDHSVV

As for `CCc1nnn(-c2ccc(-c3ccc(C4(C(=O)O)CC4)cc3)cc2)c1NC(=O)O[C@H](C)c1ccccc1` [Example 17, 1-{4′-[4-Ethyl-5-((R)-1-phenyl-ethoxycarbonylamino)-[1,2,3]triazol-1-yl]-biphenyl-4-yl}-cyclopropanecarboxylic acid], the pIC50 in assay [1] is 7.37; at LPA3 it was 4.66. Moreover, the inhibition at 30 µM on LPA3 (@ 30 μM) was 63.7%.
In the case of `Cc1nnn(-c2ccc(C3CCC(CC(=O)O)CC3)cc2)c1NC(=O)O[C@H](C)c1ccccc1` (stereo partly drawn) [Example 34, (R)-2-(4-(4-(4-Methyl-5-((1-phenylethoxy)carbonylamino)-1H-1,2,3-triazol-1-yl)phenyl)cyclohexyl)acetic acid], the pIC50 in assay [1] is 5.02; on LPA3, less than 4.52.
Take `Cc1nnn(-c2ccc(-c3ccc(C4(C(=O)O)CC4)cc3)cc2)c1NC(=O)OC(C)C` [Example 11, 1-[4′-(5-iso-Propoxycarbonylamino-4-methyl-[1,2,3]triazol-1-yl)-biphenyl-4-yl]-cyclopropanecarboxylic acid]: the negative-log IC50 (pIC50) (in assay [1]; on LPA3) was less than 4.52 each time.
For the compound `CC[C@@H](C)OC(=O)Nc1c(C)nnn1-c1ccc(-c2ccc(C3(C(=O)O)CC3)cc2)cc1` [Example 10, 1-{4′-[5-((R)-sec-Butoxycarbonylamino)-4-methyl-[1,2,3]triazol-1-yl]-biphenyl-4-yl}-cyclopropanecarboxylic acid], the negative logarithm of the IC50 (pIC50) in assay [1] was 6.40; on LPA3 it was less than 4.52.
The corresponding values for `COc1cc(-c2ccc(C3(C(=O)O)CC3)cc2)ccc1-n1nnc(C)c1NC(=O)O[C@H](C)c1ccccc1` [Example 16, 1-{3′-Methoxy-4′-[4-methyl-5-((R)-1-phenyl-ethoxycarbonylamino)-[1,2,3]triazol-1-yl]-biphenyl-4-yl}-cyclopropanecarboxylic acid] are 6.61 and less than 4.52.
On the same counts, the results for `Cc1nnn(-c2ccc(-c3ccc(C4(C(=O)O)CC4)cc3)cc2)c1NC(=O)O[C@H](C)C(C)C` [Example 9, 1-{4′-[5-((R)-1,2-Dimethyl-propoxycarbonylamino)-4-methyl-[1,2,3]triazol-1-yl]-biphenyl-4-yl}-cyclopropanecarboxylic acid] are 6.66 and less than 4.52.
